Experimental data as given in patent US20050054027A1 (priority 2003, published 2005).
Where a name gives a salt, the structure may show the parent alone.

Tested on: TMPRSS6
Assay: Inhibition of TMPRSS6 protease activity (cleavage of fluorogenic substrate Ac-RKFK-acc)
Format: biochemical, human
Details: 2 nM enzyme, 15 min preincubation at room temperature, inhibition constant only in FIG. 4
Procedure: The putative catalytic domain of TMPRSS6 minus the pro region was cloned into pFastBac1 (Invitrogen) from a human cDNA library. […] The vector also contains a C-terminal 6His tag to facilitate purification and an N-terminal honeybee melittin secretion signal. Recombinant bacmid was produced using Bac-to-Bac transposition technology (Invitrogen). Sf9 cells (Invitrogen) were then transfected with recombinant bacmid to produce rAcNPV.
Protease activity of the purified TMPRSS6 was assessed by monitoring the accumulation of the fluorophore 7-amino-4-carbamoylmethylcoumarin (acc) produced by the cleavage of the tetrapeptide substrate Ac-RKFK-acc in assay buffer (50 mM Tris-Cl pH 7.4, 200 mM NaCl, 2 mM CaCl2, 0.01% Tween 20) at 37 C. Data was collected with a Gemini EM plate reader (Molecular Devices) at λex=380 nm and λem=450 nm.
A 1 mM DMSO solution of camostat mesylate was diluted serially 1:3 in DMSO to a final concentration of 5.6 nM. The TMPRSS6 enzyme was diluted in assay buffer to 2 nM. 1 μl of each camostat dilution was added to 98 μl of the enzyme mixture in a 96 well assay plate (Dynex). The plate was incubated for 15 min at room temperature to allow equilibrium to take place between the enzyme and inhibitor. Afterward, 1 μl of a 1 mM solution of a substrate, Ac-RKFK-acc, was added to each well. […] The inhibition constant was calculated using Prism (GraphPad).

SMILES: CN(C)C(=O)COC(=O)Cc1ccc(OC(=O)c2ccc(NC(=N)N)cc2)cc1 [camostat mesylate]
- inhibition of TMPRSS6 protease activity: inhibited
